{"source": "patent US8057829B2", "about": "“Methods for repelling insects using sesquiterpene hydrocarbons and their derivatives” (Sterling International Inc., priority 2008, dated 2011)", "key": {"[1]": {"test_system": "housefly (Musca domestica) antenna", "assay": "GC-EAD antennal response, housefly", "conditions": "female housefly antenna; synthetic mixture, about 100 ng of each compound; FIG. 3", "source_text": "The sesquiterpene hydrocarbons and their derivatives disclosed herein have been identified as suitable insect repellents by testing via a gas chromatographic-electroantennographic detection (GC-EAD) method as described in Example 1 below. This method can be used to efficiently screen for potentially behaviorally active compounds, including insect repellents, attractants, deterrents, or attraction-inhibitors from complex natural sources or synthetic mixtures.\nThe GC-EAD responses of the female housefly antenna were tested on a synthetic mixture of 1-octen-3-ol, a known attractant used as a positive control, and representative sesquiterpene hydrocarbons and derivatives, (+)-longipinene, (−)-isolongifolene, (+)-longifolene, β-caryophyllene, α-humulene, and isolongifolenone, with about 100 ng of each compound in the mixture.\nThe GC-EAD responses of the male housefly antenna were tested on a synthetic mixture of 1-octen-3-ol, and two representative sesquiterpenes, β-caryophyllene and isocaryophyllene, with about 100 ng of each compound in the mixture.\n(§1) The following procedures were employed to test the EAD response of an insect antenna to a repellent compound. The GC-EAD technique provides an efficient tool for screening behaviorally active repellents. Several synthetic mixtures of potential insect repellent candidates, mostly sesquiterpene hydrocarbons and derivatives, were analyzed in splitless mode using a Varian CP-3800 GC equipped with a polar column (Innowax; 1.0 μm film thickness, 30 m×0.53 mm ID; J & W Scientific), and a 1:1 effluent splitter that allowed simultaneous flame ionization detection (FID) and EAD of the separated volatile compounds. Helium was used as the carrier gas, and the injector temperature was 220° C. The column temperature was 50° C. for 2 min, rising to 240° C. at 10° C./min, then held for 10 min. The outlet for the EAD was held in a humidified air stream flowing at 0.5 liter/min. over an antennal preparation. A glass capillary indifferent electrode filled with Beadle-Ephrussi Ringer, and grounded via a silver wire, was inserted into the severed insect's head with the antennae. A similar recording electrode connected to a high-impedance DC amplifier with automatic baseline drift compensation was placed in contact with the distal end of one antenna (Zhang et al., Chemoecology, 10:69-80 (2000)). The antennal signals were stored and analyzed on a PC equipped with a serial IDAC interface box and the program EAD ver. 2.5 (Syntech, Hilversum, The Netherlands). The compound 1-octen-3-ol (known attractant for many flies and mosquitoes) was included in most of the synthetic mixtures, as a positive control. The results of the experiments are shown in FIGS. 1-10 and described above."}, "[2]": {"test_system": "female mosquito Culex pipiens antenna", "assay": "GC-EAD antennal response, Culex pipiens", "conditions": "female Culex pipiens antennae; about 100 ng of each compound; responses weak, but repeatable; FIGS. 7 and 8", "protocol": "The GC-EAD responses of the female mosquito Culex pipiens antenna were tested on a synthetic mixture of 1-octen-3-ol, and two sesquiterpene hydrocarbons, β-caryophyllene and isocaryophyllene, with about 100 ng of each compound in the mixture.\nThe GC-EAD responses of the female mosquito Culex pipiens antenna were tested on a synthetic mixture of 1-octen-3-ol, and representative sesquiterpene hydrocarbons and derivatives including (+)-longipinene, (−)-isolongifolene, (+)-longifolene, β-caryophyllene, and isolongifolenone, with about 100 ng of each compound in the mixture.\nAntennal responses were weak, but repeatable, thus are considered to be true responses.\nas §1"}, "[3]": {"test_system": "female antennae of sand fly Phlebotomus papatasi and mosquitoes Aedes aegypti, Anopheles gambiae, Anopheles stephensi", "assay": "GC-EAD responses of sand fly and three mosquitoes to synthetic mixtures", "conditions": "about 100 ng of each compound, on one or more of the sand fly or the mosquitoes, FIGS. 9 and 10", "protocol": "The GC-EAD responses of female antennae of the sand fly, Phlebotomus papatasi, and three species of mosquitoes, Aedes aegypti, Anopheles gambiae, and anopheles stephensi were tested on a synthetic mixture of 1-octen-3-ol, six sesquiterpene hydrocarbons including (+)-longipinene, (−)-isolongifolene, (+)-longifolene, β-caryophyllene, isolongifolenone, and α-humulene, and several known insect repellents including ZE-nepetalactone, EZ-nepetalactone, with about 100 ng of each compound in the mixture.\nThe GC-EAD responses of female antennae of the sand fly, Phlebotomus papatasi, and three species mosquitoes, Aedes aegypti, Anopheles gambiae, and anopheles stephensi were tested on a synthetic mixture of 1-octen-3-ol, linalool, β-caryophyllene oxide, isocaryophyllene, β-caryophyllene, and α-humulene, and DEET, with about 100 ng of each compound in the mixture.\nas §1"}, "[4]": {"test_system": "antennae of housefly, sand fly, and mosquitoes (Aedes aegypti, Aedes increpitus, Anopheles gambiae)", "assay": "GC-EAD antennal responses to SPME samples of patchouli essential oil", "conditions": "component of patchouli essential oil SPME sample; response by one or more of the insects; FIG. 2", "protocol": "as §1, with “control.” for “control. The results of the experiments are shown in FIGS. 1-10 and described above.”"}, "Aedes aegypti [5]": {"test_system": "Aedes aegypti", "assay": "Y-tube olfactometer behavioral bioassay (spatial repellency)", "type": "in vivo", "protocol": "(§2) Aegypti and An. stephensi, and one species of sand fly, P. papatasi. Both the mosquitoes and the sand flies used in the study were from colonies maintained at the Walter Reed Army Institute of Research, Department of Entomology, Silver Spring, Md. This Y-tube bioassay system, equipped with CO2-enriched air (ca. 1 l/min) as an attractant, was made from three clear acrylic tubes (4″ diameter; 12″ length) with symmetrical 120° angles among the three tube arms; and a screen butterfly valve on the top part of the bottom releasing tube. These spatial repellency tests were carried out during 8:00 am-12:00 pm (photophase) time period for Ae. aegypti and 1:00-5:00 pm (shifted scotophase) time period for the species of night-flying mosquitoes and sand fly in a temperature and humidity controlled testing room (23-25° C. and 20-40% RH). Female mosquitoes or sand flies were stored at ˜25-26° C., 50-89% RH, 12:12 hr. (L/D), fed with 10% sucrose solution before testing. The candidate chemical (individual or mixture) dispenser and a blank control were placed in the upper left or right arm of the Y-tube before releasing 25-40, 6 to 10 day-old female mosquitoes (or 3 to 10 day-old sand flies) into the bottom tube via a small hole. After a 30-60 sec acclimation period, the butterfly screen valve (door) on the top of the bottom tube was opened. After 10 min., the valve was closed and the numbers of mosquitoes or sand flies in each arm (including the bottom tube) were counted. In order to minimize the position effect, the same experiment was repeated once with the treatment and blank control arms shifted using a new (clean) Y-tube olfactometer and a new batch of mosquitoes/sand flies. Data from these two replicates were pooled for χ2 goodness of fit test (df=1) between the treatment and blank control."}, "Anopheles stephensi [6]": {"test_system": "Anopheles stephensi", "assay": "Y-tube olfactometer behavioral bioassay (spatial repellency)", "type": "in vivo", "protocol": "as §2"}, "Aedes aegypti [7]": {"test_system": "Aedes aegypti", "assay": "K&D module behavioral bioassay (topical repellency, biting)", "type": "in vivo", "protocol": "(§3) The bioassays were conducted with a six-cell in vitro K&D module system, as disclosed in Klun and Debboun, J. Med. Entomol. 37:177-181 (2000), loaded with an “artificial blood” (CPDA+ATP) solution.\n(§4) Clove essential oil, patchouli oil, and EAD-active potential repellents, β-caryophyllene, isocaryophyllene, (+)-longifolene, and their 1:1:1 mixture, plus α-guaiene, caryophyllene oxide, and a β-caryophyllene ketone, were tested using the six-cell in vitro K&D module system (Klun and Debboun, J. Med. Entomol. 37:177-181 (2000)) loaded with an “artificial blood” (CPDA+ATP) solution on both Ae. aegypti and An. stephensi in a dose-response fashion. The K&D in vitro assay system has three components: (1) a Plexiglas™ 29.7 cm.×7.1 cm K&D module composed of six adjacent cells, each designed to hold mosquitoes and each having a rectangular 3×4 cm floor hole that is opened and closed by a sliding door; (2) a Plexiglas™ six-well 29.7 cm×7.1 cm water water-bath warmed (38° C.) reservoir with six 3×4 cm wells designed to match the sliding-door openings of the K&D module base and to contain 6 mL warmed “artificial blood” wells covered with a collagen membrane; and (3) a 29.7 cm×7.1 cm'0.4 cm Teflon® separator having six rectangular openings like the K&D module. The K&D module was connected to a constant temperature water circulator at 38° C. The cells were covered with an Edicol collagen membrane strip. Nylon organdy strips with ink cell patterns were numbered and randomly treated with […] of the tested chemical in ethanol (ethanol alone as blank control), plus DEET (ca. 10 μg/cm^2) as a positive control. This treated nylon organdy strip was placed on top of the collagen membrane. The upper section of the K & D module with the six cells each containing 5 mosquitoes (5-10 d old, starved for 24 hr before testing) was placed on top of the nylon strip. The doors to the cells were slid open so the mosquitoes could be free to feed on the “artificial blood” via the collagen membrane if they were hungry. The experiments were allowed to run for 3 minutes, and the number of mosquitoes feeding (biting) in each cell was recorded. After each experiment, the nylon and collagen strips were removed. The CPDA+ATP solution was removed and allowed to dry prior to starting the next experiment. The experiments on each chemical and each mosquito species were run three times before the bottom section with circulated water was cleaned prior to use again."}, "Anopheles stephensi [8]": {"test_system": "Anopheles stephensi", "assay": "K&D module behavioral bioassay (topical repellency, biting)", "type": "in vivo", "protocol": "as §3, §4"}, "[9]": {"conditions": "Aedes aegypti females, release rate per chemical (1-60 mg/day), 10 min"}, "[10]": {"conditions": "Anopheles stephensi females, release rate per chemical (β-Caryophyllene 10 mg/day), 10 min"}, "[11]": {"conditions": "10 μg/cm^2, DEET values are the positive control run with the chemical"}}}
{"smiles": "CC1=CC[C@@H]2[C@H]3[C@H]1[C@@]2(C)CCCC3(C)C", "note": "[(+)-longipinene, (+)-Longipinene]", "values": [{"measurement": "GC-EAD antennal activity", "setting": "[1]", "result": "active"}, {"measurement": "GC-EAD antennal activity", "setting": "[2]", "result": "active"}, {"measurement": "GC-EAD antennal activity", "setting": "[3]", "result": "antennally active"}]}
{"smiles": "CC1(C)C2=CC(=O)CC(C)(C)[C@]23CC[C@H]1C3", "note": "[isolongifolenone, reference compound]", "values": [{"measurement": "GC-EAD antennal activity", "setting": "[1]", "result": "inactive"}, {"measurement": "GC-EAD antennal activity", "setting": "[3]", "result": "does not appear to have elicited antennal activity"}]}
{"smiles": "C=C1C2CCC3(C)C(C2)C(C)CCC13C", "note": "(stereo not shown) [seychellene]", "values": [{"measurement": "GC-EAD antennal activity", "setting": "[4]", "result": "elicited EAD-activity"}]}
{"smiles": "C=C(C)[C@@H]1CCC(C)=C2CC[C@H](C)[C@@H]2C1", "note": "[α-Bulnesene, α-bulnesene]", "values": [{"measurement": "GC-EAD antennal activity", "setting": "[4]", "result": "elicited EAD-activity"}, {"measurement": "Number of mosquitoes in each arm: Blank", "setting": "Aedes aegypti [5]; [9]", "result": 35}, {"measurement": "Number of mosquitoes in each arm: Bottom", "setting": "Aedes aegypti [5]; [9]", "result": 24}, {"measurement": "Number of mosquitoes in each arm: Repellent", "setting": "Aedes aegypti [5]; Aedes aegypti females, release rate per chemical (1-60 mg/day), 10 min, two replicates pooled", "result": 11}, {"measurement": "SAI (Spatial Activity Index)", "setting": "Aedes aegypti [5]; Aedes aegypti, (Nc − Nt)/(Nc + Nt), −1 to 1, zero indicating no response", "result": 0.52}, {"measurement": "Number of mosquitoes in each arm: Repellent", "setting": "Anopheles stephensi [6]; Anopheles stephensi females, release rate per chemical (1-60 mg/day; β-Caryophyllene 10 mg/day), 10 min", "result": 13}, {"measurement": "Number of mosquitoes in each arm: Blank", "setting": "Anopheles stephensi [6]; [10]", "result": 33}, {"measurement": "Number of mosquitoes in each arm: Bottom", "setting": "Anopheles stephensi [6]; [10]", "result": 25}, {"measurement": "SAI (Spatial Activity Index)", "setting": "Anopheles stephensi [6]; Anopheles stephensi, β-Caryophyllene 10 mg/day", "result": 0.43}, {"measurement": "% of biting (±SE) (N = 3)", "setting": "Aedes aegypti [7]; [11]", "result": "73 ± 7", "unit": "b %"}, {"measurement": "% of biting (±SE) (N = 3)", "setting": "Aedes aegypti [7]; 100 μg/cm^2", "result": "0 ± 0", "unit": "a %"}, {"measurement": "% of biting (±SE) (N = 3)", "setting": "Aedes aegypti [7]; 500 μg/cm^2", "result": "0 ± 0", "unit": "a %"}, {"measurement": "% of biting (±SE) (N = 3)", "setting": "Aedes aegypti [7]; 1000 μg/cm^2", "result": "0 ± 0", "unit": "a %"}, {"measurement": "% of biting (±SE) (N = 3)", "setting": "Anopheles stephensi [8]; [11]", "result": "87 ± 7", "unit": "b %"}, {"measurement": "% of biting (±SE) (N = 3)", "setting": "Anopheles stephensi [8]; 100 μg/cm^2", "result": "0 ± 0", "unit": "a %"}, {"measurement": "% of biting (±SE) (N = 3)", "setting": "Anopheles stephensi [8]; 500 μg/cm^2", "result": "0 ± 0", "unit": "a %"}, {"measurement": "% of biting (±SE) (N = 3)", "setting": "Anopheles stephensi [8]; 1000 μg/cm^2", "result": "0 ± 0", "unit": "a %"}]}
{"smiles": "CC1=CCC2CC3C(C)CCC13C2(C)C", "note": "(stereo not drawn) [α-patchoulene, α-Patchoulene]", "values": [{"measurement": "GC-EAD antennal activity", "setting": "[4]", "result": "elicited EAD-activity"}]}
{"smiles": "CC1CCC2=C1CC1CCC2(C)C1(C)C", "note": "(stereo not drawn) [β-patchoulene, β-Patchoulene]", "values": [{"measurement": "GC-EAD antennal activity", "setting": "[4]", "result": "elicited EAD-activity"}]}
